The subject of test [1] is OCI-AML3 (N-Ras Q61L). Nature of the test: Inhibition of cell proliferation (GI50). In kind it is cell-based. Particulars: Homo sapiens, OCI-AML-3; OCI-AML3 cell line; read-out: Proliferation inhibitory activity (GI50, μM) OCI-AML3 (N-Ras Q61L). Here is the method: (§1) The inhibitory activities of the compounds of the present invention against the proliferation of the mt-NRAS (G12D) Ba/F3 and […] (mt-NRAS) cell lines were measured and the GI50 values thereof were calculated.
Referring to the results in Table 2, it can be seen that the compound of the present invention has inhibitory activity against the proliferation of the human acute myeloid leukemia cell line (OCI-AML3) having the NRAS mutant gene, and the effect thereof is remarkable. Therefore, it can be seen that the compound of the present invention is particularly effective as a therapeutic agent for acute myeloid leukemia (AML).

The test system of test [2] is Ba/F3 (N-Ras G12D). Nature of the test: Inhibition of cell proliferation (GI50). In kind it is cell-based. The settings on record: Mus musculus, BaF3; mt-NRAS (G12D) Ba/F3 cell line; read-out: Proliferation inhibitory activity (GI50, μM) Ba/F3 (N-Ras G12D). Here is the method: as §1
Test [3] concerns Ba/F3 (parental). Nature of the test: Inhibition of cell proliferation (GI50). In kind it is cell-based. Particulars: Mus musculus, BaF3; Ba/F3 (parental) cell line; read-out: Proliferation inhibitory activity (GI50, μM) Ba/F3 (parental). How it is done: The inhibitory activities of the compounds of the present invention against the proliferation of the Ba/F3 (parental) cell line were measured and the GI50 values thereof were calculated.

Test [4] concerns the target ACK1 (Homo sapiens, UniProt Q07912). Nature of the test: Kinase inhibitory activity, IC50. Type of test: biochemical. How it is done:
(§2) The inhibitory activities of the compounds of the present invention against two kinases, GCK and ACK1, were measured, and the IC50 values thereof were calculated. As a control, the following compound GNF7 was used.

The target of test [5] is T1, GCK (Homo sapiens, UniProt Q12851).
T1 sequence (Q12851 1-820): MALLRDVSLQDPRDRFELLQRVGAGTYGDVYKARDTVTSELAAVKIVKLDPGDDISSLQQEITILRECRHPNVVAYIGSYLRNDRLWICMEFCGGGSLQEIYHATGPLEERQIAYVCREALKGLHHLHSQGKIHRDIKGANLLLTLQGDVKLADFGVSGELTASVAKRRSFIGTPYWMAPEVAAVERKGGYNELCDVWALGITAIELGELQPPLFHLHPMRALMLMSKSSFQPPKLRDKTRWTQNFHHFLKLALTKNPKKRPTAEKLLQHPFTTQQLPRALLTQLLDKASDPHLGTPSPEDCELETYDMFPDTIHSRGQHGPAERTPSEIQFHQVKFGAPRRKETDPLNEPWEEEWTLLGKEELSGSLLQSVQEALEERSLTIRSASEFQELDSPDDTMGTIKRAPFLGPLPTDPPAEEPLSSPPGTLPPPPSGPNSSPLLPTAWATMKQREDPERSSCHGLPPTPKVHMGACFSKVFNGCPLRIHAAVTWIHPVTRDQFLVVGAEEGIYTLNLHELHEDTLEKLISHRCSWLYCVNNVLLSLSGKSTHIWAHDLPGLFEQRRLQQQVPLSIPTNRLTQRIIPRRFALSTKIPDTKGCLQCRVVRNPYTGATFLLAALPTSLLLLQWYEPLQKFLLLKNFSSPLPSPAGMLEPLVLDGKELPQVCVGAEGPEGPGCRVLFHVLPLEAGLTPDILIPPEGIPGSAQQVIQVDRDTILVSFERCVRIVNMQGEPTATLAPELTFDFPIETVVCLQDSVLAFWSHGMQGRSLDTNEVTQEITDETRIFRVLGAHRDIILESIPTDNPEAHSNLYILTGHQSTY
Nature of the test: Kinase inhibitory activity, IC50. Type of test: biochemical. How it is done:
as §2

Usually IC50 stands for the midpoint of a concentration-inhibition curve.

ACK1, sequence (Q07912 whole entry): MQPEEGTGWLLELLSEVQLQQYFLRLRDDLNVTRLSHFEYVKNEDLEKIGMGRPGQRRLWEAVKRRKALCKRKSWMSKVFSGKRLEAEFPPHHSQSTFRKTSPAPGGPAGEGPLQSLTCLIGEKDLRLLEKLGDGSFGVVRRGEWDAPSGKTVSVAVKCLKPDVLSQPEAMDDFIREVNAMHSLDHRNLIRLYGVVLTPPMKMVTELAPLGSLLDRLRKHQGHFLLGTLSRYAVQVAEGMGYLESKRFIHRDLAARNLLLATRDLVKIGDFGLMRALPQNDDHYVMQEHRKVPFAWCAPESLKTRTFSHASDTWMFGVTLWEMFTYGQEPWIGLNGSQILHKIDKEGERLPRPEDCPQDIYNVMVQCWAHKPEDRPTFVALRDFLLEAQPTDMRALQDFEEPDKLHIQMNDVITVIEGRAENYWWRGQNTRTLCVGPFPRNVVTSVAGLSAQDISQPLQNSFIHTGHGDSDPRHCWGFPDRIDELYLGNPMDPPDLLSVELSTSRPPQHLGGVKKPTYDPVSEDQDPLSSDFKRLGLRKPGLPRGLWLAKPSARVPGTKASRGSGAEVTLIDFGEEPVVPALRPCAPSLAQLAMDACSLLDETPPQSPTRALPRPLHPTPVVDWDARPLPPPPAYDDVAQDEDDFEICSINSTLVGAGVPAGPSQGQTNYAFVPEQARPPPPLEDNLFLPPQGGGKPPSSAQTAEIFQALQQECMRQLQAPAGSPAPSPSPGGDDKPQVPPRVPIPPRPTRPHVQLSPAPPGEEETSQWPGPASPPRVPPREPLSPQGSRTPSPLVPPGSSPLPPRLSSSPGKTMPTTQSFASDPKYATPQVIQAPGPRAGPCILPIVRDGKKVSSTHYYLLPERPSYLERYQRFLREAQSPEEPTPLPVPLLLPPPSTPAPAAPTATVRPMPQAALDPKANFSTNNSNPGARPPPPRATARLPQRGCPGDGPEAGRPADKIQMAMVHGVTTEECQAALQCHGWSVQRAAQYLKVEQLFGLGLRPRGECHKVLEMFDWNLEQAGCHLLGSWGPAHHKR

In the case of `C=Cc1nc(-c2cc(NC(=O)c3cccc(C(F)(F)F)c3)ccc2C)cc2cnc(Nc3ccc(C)nc3)nc12` [Compound No. 2, N-(4-methyl-3-(2-((6-methylpyridin-3-yl)amino)-8-vinylpyrido[3,4-d]pyrimidin-6-yl)phenyl)-3-(trifluoromethyl)benzamide], the figures for the GI50 in test [1], in test [2] and in test [3] were 0.5 to 3 µM, below 0.5 µM and 3 to 5 µM, respectively.

Turning to `Cc1ccc(NC(=O)c2cccc(C(F)(F)F)c2)cc1-c1cc2cnc(N)nc2cn1` [Compound No. 17, N-(3-(2-aminopyrido[3,4-d]pyrimidin-6-yl)-4-methylphenyl)-3-(trifluoromethyl)benzamide], the results for the GI50 in test [1], in test [2] and in test [3] were below 0.5 µM, below 0.5 µM and above 5 µM, respectively.

As for `Cc1ccc(Nc2ncc3cc(-c4cc(NC(=O)c5cc(N6CCOCC6)cc(C(F)(F)F)c5)ccc4C)ncc3n2)cn1` [Compound No. 14, N-(4-methyl-3-(2-((6-methylpyridin-3-yl)amino)pyrido[3,4-d]pyrimidin-6-yl)phenyl)-3-morpholino-5-(trifluoromethyl)benzamide], the results for the GI50 in test [1], in test [2] and in test [3] were below 0.5 µM, below 0.5 µM and 0.5 to 3 µM, respectively.

With `Cc1ccc(Nc2ncc3c(n2)N(C)C(=O)N(c2cc(NC(=O)c4cccc(C(F)(F)F)c4)ccc2C)C3)cn1` [GNF 7, reference compound], the IC50 in test [4] and in test [5] was below 100 nM throughout. Also, the GI50 in test [1] is below 0.5 µM; in test [2], 0.5 to 3 µM; in test [3], 3 to 5 µM.

For `Cc1ccc(NC(=O)c2cccc(C(F)(F)F)c2)cc1-c1cc2cnc(NCCO)nc2cn1` [Compound No. 18, N-(3-(2-((2-hydroxyethyl)amino)pyrido[3,4-d]pyrimidin-6-yl)-4-methylphenyl)-3-(trifluoromethyl)benzamide], the 50% inhibitory concentration (IC50) in test [4] and in test [5] was 100 to 1000 nM throughout. The GI50 in test [1] was below 0.5 µM; in test [2] it was below 0.5 µM; in test [3], above 5 µM.

On to `Cc1ccc(Nc2ncc3cc(-c4cc(NC(=O)c5ccc(CN6CCOCC6)c(C(F)(F)F)c5)ccc4C)ncc3n2)cn1` [Compound No. 12, N-(4-methyl-3-(2-((6-methylpyridin-3-yl)amino)pyrido[3,4-d]pyrimidin-6-yl)phenyl)-4-(morpholinemethyl)-3-(trifluoromethyl)benzamide], for which the GI50 in test [1] was below 0.5 µM; in test [2] it was below 0.5 µM; in test [3], above 5 µM.

In the case of `Cc1ccc(Nc2ncc3cc(-c4cc(NC(=O)c5cc(-n6cnc(C)c6)cc(C(F)(F)F)c5)ccc4C)ncc3n2)cn1` [Compound No. 13, 3-(4-methyl-1H-imidazol-1-yl)-N-(4-methyl-3-(2-((6-methylpyridin-3-yl)amino)pyrido[3,4-d]pyrimidin-6-yl)phenyl)-5-(trifluoromethyl)benzamide], the figures for the GI50 in test [1], in test [2] and in test [3] were below 0.5 µM, below 0.5 µM and above 5 µM, respectively.

Turning to `COc1nc(-c2cc(NC(=O)c3cccc(C(F)(F)F)c3)ccc2C)cc2cnc(Nc3ccc(C)nc3)nc12` [Compound No. 8, N-(3-(8-methoxy-2-((6-methylpyridin-3-yl)amino)pyrido[3,4-d]pyrimidin-6-yl)-4-methylphenyl)-3-(trifluoromethyl)benzamide], the GI50 in test [1] is below 0.5 µM; in test [2], 0.5 to 3 µM; in test [3], 3 to 5 µM.

For the compound `Cc1ccc(Nc2ncc3cc(-c4cc(NC(=O)c5cccc(C(F)(F)F)c5)ccc4C)ncc3n2)c(C)n1` [Compound No. 24, N-(3-(2-((2,6-dimethylpyridin-3-yl)amino)pyrido[3,4-d]pyrimidin-6-yl)-4-methylphenyl)-3-(trifluoromethyl)benzamide], the figures for the GI50 in test [1], in test [2] and in test [3] were below 0.5 µM, below 0.5 µM and above 5 µM, respectively.

For the compound `Cc1ccc(NC(=O)c2cccc(C(F)(F)F)c2)cc1-c1cc2cnc(NC3CC3)nc2cn1` [Compound No. 19, N-(3-(2-(cyclicpropylamino)-pyrido[3,4-d]pyrimidin-6-yl)-4-methylphenyl)-3-(trifluoromethyl)benzamide], the IC50 in test [4] and in test [5] was 100 to 1000 nM throughout. For the same compound, the GI50 in test [1] is below 0.5 µM; in test [2], below 0.5 µM; in test [3], 0.5 to 3 µM.

For `Cc1ccc(Nc2ncc3cc(-c4cc(NC(=O)c5cccc(C(F)(F)F)c5)ccc4C)nc(Cl)c3n2)cn1` [Compound No. 1, N-(3-(8-chloro-2-((6-methylpyridin-3-yl)amino)pyrido[3,4-d]pyrimidin-6-yl)-4-methylphenyl)-3-(trifluoromethyl)benzamide], the 50% inhibitory concentration (IC50) was 100 to 1000 nM in test [4] and above 10000 nM in test [5]. Further, the GI50 is below 0.5 µM in test [1], below 0.5 µM in test [2] and above 5 µM in test [3].

As to `Cc1ccncc1Nc1ncc2cc(-c3cc(NC(=O)c4cccc(C(F)(F)F)c4)ccc3C)ncc2n1` [Compound No. 23, N-(4-methyl-3-(2-((4-methylpyridin-3-yl)amino)pyrido[3,4-d]pyrimidin-6-yl)phenyl)-3-(trifluoromethyl)benzamide], the GI50 in test [1], in test [2] and in test [3] was below 0.5 µM each time.

In the case of `CCc1nc(-c2cc(NC(=O)c3cccc(C(F)(F)F)c3)ccc2C)cc2cnc(Nc3ccc(C)nc3)nc12` [Compound No. 3, N-(3-(8-ethyl-2-((6-methylpyridin-3-yl)amino)pyrido[3,4-d]pyrimidin-6-yl)-4-methylphenyl)-3-(trifluoromethyl)benzamide], the IC50 in test [4] is 100 to 1000 nM; in test [5] it was above 10000 nM. The GI50 in test [1] is 0.5 to 3 µM; in test [2] it was 0.5 to 3 µM; in test [3], above 5 µM.

The values above are taken from US20230120564A1, “PYRIDO[3,4-D]PYRIMIDINE DERIVATIVE AND THERAPEUTIC PHARMACEUTIC COMPOSITION COMPRISING SAME” (KOREA INSTITUTE OF SCIENCE AND TECHNOLOGY, priority 2020, published 2023).
